Experimental data taken from PubChem BioAssay (NCI).
Where “and” joins values, the source holds several entries; their conditions need not be identical. Equal entries are not always repeated.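 These data come from cells grown in 96-well plates and exposed to compound for 48 hours at five concentrations. GI50: concentration for 50% inhibition of growth. At the TGI there is no net growth.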

Assays:
Test in all cases: NCI tumour cell line growth inhibition, 48 h
HOP-62 NSCLC = system: HOP-62 NSCLC
HCT-116 colon = system: HCT-116 colon
NCI-H226 lung = system: NCI-H226 lung
ACHN renal = system: ACHN renal
BT-549 breast = system: BT-549 breast
MOLT-4 leukemia = system: MOLT-4 leukemia
IGROV1 ovarian = system: IGROV1 ovarian
SK-OV-3 ovarian = system: SK-OV-3 ovarian
LOX IMVI melanoma = system: LOX IMVI melanoma
A498 renal = system: A498 renal

| SMILES | TGI (HOP-62 NSCLC) [µM] | TGI (HCT-116 colon) [µM] | TGI (NCI-H226 lung) [µM] | TGI (ACHN renal) [µM] | TGI (BT-549 breast) [µM] | TGI (MOLT-4 leukemia) | TGI (IGROV1 ovarian) [µM] | TGI (SK-OV-3 ovarian) [µM] | TGI (LOX IMVI melanoma) [µM] | TGI (A498 renal) [µM] | GI50 (HOP-62 NSCLC) [µM] | GI50 (HCT-116 colon) [µM] | GI50 (NCI-H226 lung) [µM] | GI50 (ACHN renal) [µM] | GI50 (BT-549 breast) [µM] | GI50 (MOLT-4 leukemia) [µM] | GI50 (IGROV1 ovarian) [µM] | GI50 (SK-OV-3 ovarian) [µM] | GI50 (LOX IMVI melanoma) [µM] | GI50 (A498 renal) [µM] |
| --- | --- | --- | --- | --- | --- | --- | --- | --- | --- | --- | --- | --- | --- | --- | --- | --- | --- | --- | --- | --- |
| c1ccc2c(Nc3ncco3)cccc2c1 | > 10 | > 10 | > 10 | > 10 | > 10 | > 10 µM | > 10 | > 10 | > 10 | > 10 |  |  |  |  |  |  |  |  |  |  |
| CN(C)C=N[C@@H](C(=O)O)c1ccccc1 | > 100 | > 100 | > 100 | > 100 | > 100 | > 100 µM | > 100 | > 100 | > 100 | > 100 |  |  |  |  |  |  |  |  |  |  |
| CC(=O)CC(=O)N1CCSC1=S | > 10 | > 10 | > 10 | > 10 | > 10 | > 10 µM | > 10 | > 10 | > 10 | > 10 |  |  |  |  |  |  |  |  |  |  |
| CC(C)[C@H](C)/C=C/[C@@H](C)C1CC[C@H]2[C@@]34C=C[C@]5(C[C@@H](O)CC[C@]5(C)[C@H]3CC[C@]12C)OO4 (stereo not given in full) | > 100 | 42.8 | 49.9 | > 100 | 92.7 | > 100 µM | > 100 | > 100 | 41.6 | 57.3 |  |  |  |  |  |  |  |  |  |  |
| O=C(O)Cn1c2c(c3c1-c1ccccc1C3=O)C(=O)CCC2 | > 100 | > 100 | > 100 | > 100 | > 100 | > 100 µM | > 100 | > 100 | > 100 | > 100 | > 100 | > 100 | > 100 | > 100 | > 100 | > 100 | > 100 | > 100 | > 100 | > 100 |
| Oc1cccc2c(Br)ccnc12 | > 69 | 12.2 | 29.8 | 27.5 | > 45.7 | 6.91 µM | 9.41 | 66.8 | 12.7 | 39.1 |  |  |  |  |  |  |  |  |  |  |
| CC(OP(=O)(O)O)C(N)C(=O)O (stereo not given) | > 100 | > 100 | > 100 | > 100 | > 100 | > 100 µM | > 100 | > 100 | > 100 | > 100 |  |  |  |  |  |  |  |  |  |  |
| Cc1ccc(N=C/C=C(\Nc2ccc(C)cc2)c2ccc3ccccc3c2)cc1 | 5.4 | 2.99 | 4.48 | 7.77 | 13.6 | 0.533 µM | 15.1 | 9.71 | 1.91 | 24.2 |  |  |  |  |  |  |  |  |  |  |
| O=C1C=CC2(O[C@H](C3CCCCC3)[C@@H](C3CCCCC3)O2)C(SC(=O)c2ccccc2)C1 (stereo not given in full) | 9.57 | 1.75 | 1.62 | 6.43 | 8.28 | 3.77 µM | 9.1 | 33.5 | 5.92 | 18.4 |  |  |  |  |  |  |  |  |  |  |
| O=c1cc(N2CCOCC2)n2c(ccc3ccccc32)n1 | > 100 | > 100 | > 100 | > 100 | > 100 | > 100 µM | > 100 | > 100 | > 100 | > 100 |  |  |  |  |  |  |  |  |  |  |
| O=c1[nH]nc(-c2ccccc2)c2[nH]c3c(c12)Cc1ccccc1-3 | > 100 | > 100 | 70.7 | > 100 | > 100 | > 25.2 µM | > 100 | > 100 | > 100 | > 100 |  |  |  |  |  |  |  |  |  |  |
| CCOC(=O)c1cc2c3c(c(C(C)=O)c(OC)c2[nH]1)N(C(=O)CC)CC3 | 56.9 | 30.9 | 34.2 |  | 47.1 | 35.9 µM | 30 | > 100 | 29.6 | > 100 |  |  |  |  |  |  |  |  |  |  |
| CC(C)(C)c1cc(OCc2nnc3sc(Cc4ccccc4)nn23)c(Cl)cc1OCc1nnc2sc(Cc3ccccc3)nn12 | > 100 | 75.2 | > 100 | 68 | 96.9 | > 100 µM | 52.4 | > 100 | > 100 | 67.2 |  |  |  |  |  |  |  |  |  |  |
| Cc1nc2ccc(Br)cc2c(=O)n1-c1ccc(N)cc1 | > 100 | > 100 | > 100 | > 100 | > 100 | > 100 µM | > 100 | > 100 | > 100 | > 100 |  |  |  |  |  |  |  |  |  |  |
| NC1CCCCC1NCCNC1CCCCC1N (stereo not given) | > 100 | > 100 | > 100 | > 100 | > 100 | > 100 µM | > 100 | > 100 | > 100 | > 100 |  |  |  |  |  |  |  |  |  |  |
| O=C1C=CC(=O)c2c(O)c(N3CCOCC3)c(Cl)c(O)c21 | 2.36 | 0.403 | 3.34 | 0.739 | 0.329 | > 2.13 µM | 1.21 | 6.22 | 0.419 | 3.01 |  |  |  |  |  |  |  |  |  |  |

| SMILES | TGI (HOP-62 NSCLC) [µM] | TGI (HCT-116 colon) [µM] | TGI (NCI-H226 lung) [µM] | TGI (ACHN renal) [µM] | TGI (BT-549 breast) [µM] | TGI (MOLT-4 leukemia) | TGI (IGROV1 ovarian) [µM] | TGI (SK-OV-3 ovarian) [µM] | TGI (LOX IMVI melanoma) [µM] | TGI (A498 renal) [µM] | GI50 (HOP-62 NSCLC) [µM] | GI50 (HCT-116 colon) [µM] | GI50 (NCI-H226 lung) [µM] | GI50 (ACHN renal) [µM] | GI50 (BT-549 breast) [µM] | GI50 (MOLT-4 leukemia) [µM] | GI50 (IGROV1 ovarian) [µM] | GI50 (SK-OV-3 ovarian) [µM] | GI50 (LOX IMVI melanoma) [µM] | GI50 (A498 renal) [µM] |
| --- | --- | --- | --- | --- | --- | --- | --- | --- | --- | --- | --- | --- | --- | --- | --- | --- | --- | --- | --- | --- |
| COc1cccc2c1OC1c3ccccc3OCC1(O)C2 (stereo not given) | > 100 | > 100 | > 100 | > 100 | > 100 | > 100 µM | > 100 | > 100 | > 100 | > 100 |  |  |  |  |  |  |  |  |  |  |
| Oc1c(Cl)cc2cc1-c1cc(cc(Cl)c1O)CCc1c(cc(Cl)c(O)c1Cl)-c1cc(Cl)c(c(Cl)c1O)/C=C\2 | 16 | 15.3 | 22.5 | 29.7 | > 50 | > 50 µM | 18.3 | 18 | 20 | 30.8 |  |  |  |  |  |  |  |  |  |  |
| O=C1C(N2CCN(CCOCCO)CC2)=C(Cl)C(=O)c2ncccc21 | > 100 | 33.5 | > 100 | 33.4 | 8.33 | 5.15 µM and 31.4 µM | 31.4 | > 100 | 26.7 | > 100 | > 100 | 18.5 | > 100 |  |  | 9.63 |  | > 100 |  | > 100 |
| CCOc1ccc2nc3nc(=O)[nH]c(C)c3c(NC(C)(CO)CO)c2c1 | > 100 | > 100 | > 100 | > 100 | > 100 | > 100 µM | > 100 | > 100 | > 100 | > 100 |  |  |  |  |  |  |  |  |  |  |
| CSc1nnc(SCc2nn3c(=O)cc(C)nc3s2)s1 | > 100 | > 100 | > 100 | > 100 | > 100 | > 100 µM | > 100 | > 100 | > 100 | > 100 |  |  |  |  |  |  |  |  |  |  |
| O=C1C=C(N2CCN(c3ncccn3)CC2)C(=O)c2c(O)ccc(O)c21 | > 100 | > 100 | > 100 | > 100 | > 100 | > 100 µM | > 100 | > 100 | > 100 | > 100 |  |  |  |  |  |  |  |  |  |  |
| COc1ccc(-n2c(N)c(C#N)c(C#N)c2-c2ccco2)cc1 | > 100 | > 100 | > 100 | > 100 | > 100 | > 100 µM | > 100 | > 100 | > 100 | > 100 |  |  |  |  |  |  |  |  |  |  |
| Cc1nc(C)c(N2CCN(CN)CC2)c(=O)[nH]1 | > 100 | > 100 | > 100 | > 100 | > 100 | > 100 µM | > 100 | > 100 | > 100 | > 100 |  |  |  |  |  |  |  |  |  |  |
| Cn1c2ccccc2n2c3ncccc3c(=O)cc12 | > 100 | 85.9 | > 100 | > 100 | > 100 | > 100 µM | > 100 | > 100 | > 100 | > 100 |  |  |  |  |  |  |  |  |  |  |
| CC(c1ccccc1)n1cncc1C(=O)NN1CCN(C)CC1 (stereo not given) | > 10 | > 10 | > 10 | > 10 | > 10 | > 10 µM | > 10 | > 10 | > 10 | > 10 |  |  |  |  |  |  |  |  |  |  |
| COc1cccc(NC(=O)CC(=O)n2nc(-c3ccccc3)c(N=Nc3ccc(Cl)cc3)c2-c2ccccc2)c1 | 90.9 | 67 | 73.8 | > 100 | 58.6 | > 59.3 µM | > 96.4 | > 79.9 | 38.4 | > 83.1 |  |  |  |  |  |  |  |  |  |  |
| O=C1C=CC(=O)c2c1ccc1c3ccccc3n(Cc3ccccc3)c21 | > 100 | 51.9 | 24.7 | 35.4 | 43.9 | > 38.4 µM | 46.2 | > 100 | 52.3 | 44.3 |  |  |  |  |  |  |  |  |  |  |
| Clc1ccc(-c2nn3c(COc4cccc(OCc5nnc6sc(-c7ccc(Cl)cc7)nn56)c4)nnc3s2)cc1 | > 100 | 44.7 | > 100 | 68.4 | > 100 | 74.6 µM | > 100 | > 100 | > 100 | 61.8 |  |  |  |  |  |  |  |  |  |  |
| Cn1c2ccc(Cl)cc2c2ccc3c(c21)C(=O)C=CC3=O | > 10 | > 10 | > 10 | > 10 | > 10 | > 10 µM | > 10 | > 10 | > 10 | > 10 |  |  |  |  |  |  |  |  |  |  |
| COc1cc(S(=O)(=O)Nc2ccc(-c3csc(N4C(=O)C(Cl)C4c4ccccc4O)n3)cc2)ccc1Cl (stereo not given) | > 100 | > 100 | > 100 | > 100 | > 100 | 41.7 µM | 56.3 | > 100 | 3.56 | 0.948 |  |  |  |  |  |  |  |  |  |  |
